Laboratory results taken from patent US7192607B2, “Formulations for the prevention or the treatment of diseases affecting mucosae or skin, or for pregnancy prevention, and an applicator for the delivery of topical formulations into mucosal cavities” (Infectio Recherche Inc, priority 2002, dated 2007).

How the values were obtained:
HSV-1 (strain F) [1] = assay: Infectivity of HSV-1 (strain F) to Vero cells after treatment with SLS or DS (plaque forming units); format: cell-based, Herpes simplex virus type-1; conditions: Vero cells preincubated 1 h at 37° C. with 6.25 to 100 μM SLS prior to infection; data not shown
HSV-2 (15589) = assay: Infectivity of HSV-2 (15589), foscarnet-resistant strain, pretreated with SLS on Vero cells (PFU); format: cell-based, Herpes simplex virus type-2
Method: (§1) The effect of pretreating different strains of herpes viruses with SLS or DS on their viral infectivities to susceptible cells has been evaluated. In brief, cells were seeded in 24 well-plates (Costar, Montreal, QC, Canada). Prior to infection, the virus was either suspended in culture medium or phosphate buffered saline (PBS), or incubated with different concentrations of SLS in PBS for 1 h at 37° C. At confluency, cells were incubated with viral suspensions by centrifuging the plates (750× g for 45 min at 20° C.) to allow virus adsorption. Virus was removed and cell sheets were then overlaid with 0.5 ml of 0.6% agarose Seaplaque (Marine Colloids, Rockland, Md.) prepared in appropriate culture medium. The plates were incubated for 2 days at 37° C. Cells were then fixed with 10% formaldehyde in PBS for 20 min, washed with deionized water and stained with 0.05% methylene blue. Viral infectivity was evaluated via the determination of Plaque Forming Units (PFU).

[2] = tested on: various HSV-1 and HSV-2 strains; assay: Infectivity of HSV strains pretreated with SLS on Vero cells, text summary across strains; format: cell-based, Herpes simplex virus; conditions: pretreatment of the viruses with 50 μM SLS
Method: as §1
HSV-1 (strain F) infectivity was reduced to 21% when viral particles were pretreated with 25 μM SLS. The infectivities of all HSV-2 strains were between 50 to 70% following preincubation with 25 μM SLS. A complete loss of the infectivity of all strains tested were obtained following pretreatment of the viruses with 50 μM SLS.

HSV-1 (strain F) [3] = assay: Efficacy of SLS or DS added in overlay after infection against HSV-1 (strain F) in Vero cells (PFU); format: cell-based, Herpes simplex virus type-1; conditions: cells infected 2 h, compound in overlay for 2 days, FIG. 2
Method: In brief, cells were infected with the virus for 2 h at 37° C. Afterwards, supernatant was removed and cells were overlaid with 0.5 ml of EMEM +2% FBS containing 0.6% agarose Seaplaque and SLS or DS at the desired concentration. Plates were then incubated for 2 days at 37° C. in a 5% CO2 atmosphere. Cells were fixed with 10% formaldehyde in PBS for 20 min, washed with deionized water and stained with 0.05% methylene blue. Viral infectivity was evaluated following the determination of PFU.

HIV-1 = conditions: Howett et al., 1999; cited from earlier work
[4] = tested on: rabbit, bovine and human papillomaviruses; conditions: brief treatment with low concentrations; Howett et al., 1999; cited from earlier work
HSV-2 (6) = assay: Infectivity of HSV-2 (6), acyclovir-resistant strain, pretreated with SLS on Vero cells (PFU); format: cell-based, Herpes simplex virus type-2
Method: as §1

HSV-2 (333) = assay: Infectivity of HSV-2 (333) pretreated with SLS on Vero cells (PFU); format: cell-based, Herpes simplex virus type-2
Method: as §1

HSV-2 (strain 333) = assay: Murine intravaginal infection model, gel formulations applied prior to infection; format: in vivo, Balb/c mice; conditions: 2.5% SLS alone intravaginally 5 min prior to infection
Method: The efficacy of gel formulations to prevent the genital transmission of HSV-2 has been evaluated in a murine intravaginal infection model. In brief, female Balb/c mice aged 4 weeks were used for this study. To increase susceptibility of mice to herpes, 2.5 mg of progesterone (Depo-Provera) was administered subcutaneously to each mouse 7 days prior to and one day prior to inoculation with HSV-2. Anesthetized mice were inoculated with 5 μl of 2.4×10^7 pfu/ml of HSV-2 (strain 333) after swabbing the vagina with a calcium alginate thin tipped swab. To determine the efficacy of the gel formulations to block herpes infection, 15 μl of the gel was delivered with a pipette tip into the vagina a few minutes prior to the inoculation. The pipette tip was moved in and out four times to simulate stirring action of sexual intercourse while being cautious not to cause any bleeding.

[5] = tested on: glycoprotein D gene of HSV-1 (strain F); assay: Quantification of HSV glycoprotein D gene in Vero cells infected with pretreated virus (hybridization, densitometry); format: cell-based, Herpes simplex virus type-1; conditions: 48 h infection
Method: The quantification of the glycoprotein D gene of HSV-1 (strain F) pretreated with SLS was also evaluated in Vero cells in order to determine the presence of viral DNA in the infected cells. In brief, HSV-1 (strain F) was pretreated with varying SLS concentrations (12.5, 25, 50, 75 and 100 μM) in EMEM +2% FBS for 1 h at 37° C. Vero cells (80–90% confluent) were infected with the virus (100 PFU/ml in 20 ml) for 48 h at 37° C. in a 5% CO2 atmosphere. The culture medium was removed and cell sheet was washed twice with 1× HBSS. Cells were scrapped off from the dishes and resuspended in EMEM +2% FBS. Total DNA was extracted using a standard phenol/chloroform procedure. Quantitation of total DNA was achieved using the Burton procedure. The probe used for this study corresponds to a part of glycoprotein D of HSV-2 (strain 333), generated by PCR using the following primers: • P1 (5′-[…]-3′) and • P2 (5′-[…]-3′) and was [^32P]-labeled by random priming. Hybridization was performed at 65° C. in 0.25 M Na2HPO4 (pH 6.8 with orthophosphoric acid) and 7% SDS. Washes were done in 40 mM Na2HPO4 (pH 6.8 with orthophosphoric acid) and 1% SDS for 20 min at 65° C. followed by 20 min at 25° C.
Following a 48 h incubation, cells were collected and total DNA was extracted. […] Quantitative measurements of HSV-1 DNA levels obtained by scanning densitometry of the autoradiogram were similar (Panel B).

Vero cells = assay: Viability of Vero cells exposed to SLS or DS (MTS test); conditions: Vero cells exposed 1 h at 37° C. to concentrations as in FIG. 1 and Table 1; data not shown
[6] = virus pretreated with 6.25 μM SLS for 1 hour at 37° C.
[7] = virus pretreated with 12.5 μM SLS for 1 hour at 37° C.
[8] = virus pretreated with 25 μM SLS for 1 hour at 37° C.
[9] = virus pretreated with 50 μM SLS for 1 hour at 37° C.

## CCCCCCCCCCCCOS(=O)(=O)[O-].[Na+] [SLS, Sodium lauryl sulfate]
HSV-1 (strain F) [1]
  infectivity of HSV-1 (strain F) after preincubation of Vero cells (not virus) with SLS: did not result in a loss of infectivity
HSV-2 (15589); [6]
  PFU (% of control) for HSV-2 (15589): 108.7 ± 22.2 % of control
HSV-2 (15589); [7]
  PFU (% of control) for HSV-2 (15589): 115.1 ± 17.5 % of control
HSV-2 (15589); [8]
  PFU (% of control) for HSV-2 (15589): 59.0 ± 4.0 % of control
HSV-2 (15589); [9]
  PFU (% of control) for HSV-2 (15589): 0 % of control
[2]
  infectivity of all strains tested: complete loss
HSV-1 (strain F) [3]
  concentration with complete efficacy against viral replication: 100 µM
HIV-1
  inactivation of HIV-1: potent inactivator
[4]
  effect against rabbit, bovine and human papillomaviruses (non-enveloped viruses): effective
HSV-2 (6); [6]
  PFU (% of control) for HSV-2 (6): 105.3 ± 12.4 % of control
HSV-2 (6); [7]
  PFU (% of control) for HSV-2 (6): 82.1 ± 40.7 % of control
HSV-2 (6); [8]
  PFU (% of control) for HSV-2 (6): 51.1 ± 30.1 % of control
HSV-2 (6); [9]
  PFU (% of control) for HSV-2 (6): 0 % of control
HSV-2 (333); [6]
  PFU (% of control) for HSV-2 (333): 102.9 ± 23.5 % of control
HSV-2 (333); [7]
  PFU (% of control) for HSV-2 (333): 115.4 ± 17.0 % of control
HSV-2 (333); [8]
  PFU (% of control) for HSV-2 (333): 72.9 ± 9.1 % of control
HSV-2 (333); [9]
  PFU (% of control) for HSV-2 (333): 0 % of control
HSV-2 (strain 333)
  mice that survived the infection: all
HSV-2 (strain 333); up to 16 days post-infection
  signs of illness: did not demonstrate any sign of illness
[5]; virus pretreated with 75 μM SLS for 1 h at 37° C.
  HSV-1 DNA levels (glycoprotein D gene): 65.1 % of control values
[5]; virus pretreated with 100 μM SLS for 1 h at 37° C.
  HSV-1 DNA levels (glycoprotein D gene): 34.9 % of control values
[5]; virus pretreated with 12.5, 25 and 50 μM SLS for 1 h at 37° C.
  expression of the glycoprotein D gene compared to control: No major modification
Vero cells
  cytotoxicity (viability, MTS test): No signs of cytotoxicity
